Experimental data published in patent US20240000724A1, “Compositions and Methods for Treatment or Prevention of Oral Mucositis” (PATHWAYS BIOSCIENCE, LLC, priority 2015, published 2024).

Test system: Nrf2 (HepG2 cells)
Experiment: Nrf2 induction by PB201 analogs in HepG2 Nrf2/ARE promoter-luciferase reporter cells
Assay type: cell-based, human
Settings: 0-7 ug/mL, read 24 h after start of stimulation
Text: In this Example, the effects of compounds that are structurally related to 1,3-diphenyl-1,3-propanedione are investigated.

In the case of `O=C(c1ccccc1)C(Br)C(=O)c1ccccc1` [2-bromo-1,3-diphenyl-1,3-propanedione], the Nrf2 activation is reported as “activated Nrf2”.
With `O=C(CCCC(=O)c1ccccc1)c1ccccc1` [1,3-dibenzoylpropane] the Nrf2 activation was “activated Nrf2”.
